{"source": "ChEMBL document CHEMBL3885881", "about": "“DrugMatrix”", "key": {"Rattus norvegicus [1]": {"species_on_record": "Rattus norvegicus", "assay": "DrugMatrix - Regimen: Daily Repeat", "assay_type": "toxicity, organism-based, Sprague-Dawley", "design": "regimen Daily Repeat, gender Male, age 6-8 weeks", "details": "in vivo, po, 17 mg/kg, route oral GAVAGE, dose level High, vehicle .5 % CMC"}, "Rattus norvegicus [2]": {"species_on_record": "Rattus norvegicus", "assay_type": "toxicity, organism-based, Sprague-Dawley", "details": "in vivo, po, 17 mg/kg, 24 h, route oral GAVAGE, dose level High, time 1 day, vehicle .5 % CMC", "description": "DrugMatrix - Regimen: Single"}, "[3]": {"details": "[…], tissue Plasma, time 14 day"}}}
{"smiles": "O=C(Nc1c(Cl)cncc1Cl)c1ccc(OC(F)F)c(OCC2CC2)c1", "note": "[ROFLUMILAST]", "values": [{"measurement": "URIC ACID", "setting": "Rattus norvegicus [1]; 96 h, tissue Plasma, time 4 day", "result": 1.7, "unit": "mg/dL"}, {"measurement": "ABSOLUTE BASOPHIL", "setting": "Rattus norvegicus [1]; […], tissue Blood, time 14 day", "result": 0, "unit": "CELLS/uL"}, {"measurement": "ABSOLUTE EOSINOPHIL", "setting": "Rattus norvegicus [1]; […], tissue Blood, time 14 day", "result": 0, "unit": "CELLS/uL"}, {"measurement": "ABSOLUTE LYMPHOCYTE", "setting": "Rattus norvegicus [1]; […], tissue Blood, time 14 day", "result": 3828.67, "unit": "CELLS/uL"}, {"measurement": "ABSOLUTE MONOCYTE", "setting": "Rattus norvegicus [1]; […], tissue Blood, time 14 day", "result": 852.67, "unit": "CELLS/uL"}, {"measurement": "ABSOLUTE SEGMENTED NEUTROPHIL", "setting": "Rattus norvegicus [1]; […], tissue Blood, time 14 day", "result": 8985.33, "unit": "CELLS/uL"}, {"measurement": "BASOPHIL", "setting": "Rattus norvegicus [1]; […], tissue Blood, time 14 day", "result": 0, "unit": "%"}, {"measurement": "EOSINOPHIL", "setting": "Rattus norvegicus [1]; […], tissue Blood, time 14 day", "result": 0, "unit": "%"}, {"measurement": "ERYTHROCYTE COUNT", "setting": "Rattus norvegicus [1]; […], tissue Blood, time 14 day", "result": 7.38, "unit": "x10E6/uL"}, {"measurement": "HEMATOCRIT", "setting": "Rattus norvegicus [1]; […], tissue Blood, time 14 day", "result": 41.2, "unit": "%"}, {"measurement": "HEMOGLOBIN", "setting": "Rattus norvegicus [1]; […], tissue Blood, time 14 day", "result": 14.73, "unit": "G/DL"}, {"measurement": "LEUKOCYTE COUNT", "setting": "Rattus norvegicus [1]; […], tissue Blood, time 14 day", "result": 13.67, "unit": "x10E3/uL"}, {"measurement": "LYMPHOCYTE", "setting": "Rattus norvegicus [1]; […], tissue Blood, time 14 day", "result": 26, "unit": "%"}, {"measurement": "MEAN CORPUSCULAR HEMOGLOBIN", "setting": "Rattus norvegicus [1]; […], tissue Blood, time 14 day", "result": 20, "unit": "pg"}, {"measurement": "MEAN CORPUSCULAR HEMOGLOBIN CONCENTRATION", "setting": "Rattus norvegicus [1]; […], tissue Blood, time 14 day", "result": 35.83, "unit": "G/DL"}, {"measurement": "MONOCYTE", "setting": "Rattus norvegicus [1]; […], tissue Blood, time 14 day", "result": 6.33, "unit": "%"}, {"measurement": "NEUTROPHIL", "setting": "Rattus norvegicus [1]; […], tissue Blood, time 14 day", "result": 67.67, "unit": "%"}, {"measurement": "NUCLEATED RED BLOOD CELLS", "setting": "Rattus norvegicus [1]; […], tissue Blood, time 14 day", "result": "0 /100WBC"}, {"measurement": "PLATELET COUNT", "setting": "Rattus norvegicus [1]; […], tissue Blood, time 14 day", "result": 2047.33, "unit": "x10E3/uL"}, {"measurement": "ALANINE AMINOTRANSFERASE", "setting": "Rattus norvegicus [1]; [3]", "result": 33, "unit": "u/L"}, {"measurement": "ALBUMIN", "setting": "Rattus norvegicus [1]; [3]", "result": 3.1, "unit": "G/DL"}, {"measurement": "ALKALINE PHOSPHATASE", "setting": "Rattus norvegicus [1]; [3]", "result": 109, "unit": "u/L"}, {"measurement": "ASPARTATE AMINOTRANSFERASE", "setting": "Rattus norvegicus [1]; [3]", "result": 103.67, "unit": "u/L"}, {"measurement": "BLOOD UREA NITROGEN", "setting": "Rattus norvegicus [1]; [3]", "result": 25, "unit": "mg/dL"}, {"measurement": "CARBON DIOXIDE", "setting": "Rattus norvegicus [1]; [3]", "result": 30, "unit": "mmol/L"}, {"measurement": "CHLORIDE", "setting": "Rattus norvegicus [1]; [3]", "result": 97.5, "unit": "MEQ/L"}, {"measurement": "CHOLESTEROL", "setting": "Rattus norvegicus [1]; [3]", "result": 42.5, "unit": "mg/dL"}, {"measurement": "CREATININE", "setting": "Rattus norvegicus [1]; [3]", "result": 0.19, "unit": "mg/dL"}, {"measurement": "GLUCOSE", "setting": "Rattus norvegicus [1]; [3]", "result": 128, "unit": "mg/dL"}, {"measurement": "LACTATE DEHYDROGENASE", "setting": "Rattus norvegicus [1]; [3]", "result": 569, "unit": "u/L"}, {"measurement": "LIPASE", "setting": "Rattus norvegicus [1]; [3]", "result": 10, "unit": "u/L"}, {"measurement": "PHOSPHORUS", "setting": "Rattus norvegicus [1]; [3]", "result": 9.15, "unit": "mg/dL"}, {"measurement": "POTASSIUM", "setting": "Rattus norvegicus [1]; [3]", "result": 5.72, "unit": "MEQ/L"}, {"measurement": "SODIUM", "setting": "Rattus norvegicus [1]; [3]", "result": 142.95, "unit": "MEQ/L"}, {"measurement": "TOTAL BILIRUBIN", "setting": "Rattus norvegicus [1]; [3]", "result": 0.1, "unit": "mg/dL"}, {"measurement": "TOTAL PROTEIN", "setting": "Rattus norvegicus [1]; [3]", "result": 6.25, "unit": "G/DL"}, {"measurement": "URIC ACID", "setting": "Rattus norvegicus [1]; [3]", "result": 1.7, "unit": "mg/dL"}, {"measurement": "ABSOLUTE EOSINOPHIL", "setting": "Rattus norvegicus [2]; tissue Blood", "result": 58.67, "unit": "CELLS/uL"}, {"measurement": "ABSOLUTE LYMPHOCYTE", "setting": "Rattus norvegicus [2]; tissue Blood", "result": 7680, "unit": "CELLS/uL"}, {"measurement": "ABSOLUTE MONOCYTE", "setting": "Rattus norvegicus [2]; tissue Blood", "result": 245.33, "unit": "CELLS/uL"}, {"measurement": "ABSOLUTE SEGMENTED NEUTROPHIL", "setting": "Rattus norvegicus [2]; tissue Blood", "result": 416, "unit": "CELLS/uL"}, {"measurement": "BASOPHIL", "setting": "Rattus norvegicus [2]; tissue Blood", "result": 0, "unit": "%"}, {"measurement": "EOSINOPHIL", "setting": "Rattus norvegicus [2]; tissue Blood", "result": 0.67, "unit": "%"}, {"measurement": "ERYTHROCYTE COUNT", "setting": "Rattus norvegicus [2]; tissue Blood", "result": 5.72, "unit": "x10E6/uL"}, {"measurement": "HEMATOCRIT", "setting": "Rattus norvegicus [2]; tissue Blood", "result": 34.83, "unit": "%"}, {"measurement": "HEMOGLOBIN", "setting": "Rattus norvegicus [2]; tissue Blood", "result": 12.9, "unit": "G/DL"}, {"measurement": "LEUKOCYTE COUNT", "setting": "Rattus norvegicus [2]; tissue Blood", "result": 8.4, "unit": "x10E3/uL"}, {"measurement": "LYMPHOCYTE", "setting": "Rattus norvegicus [2]; tissue Blood", "result": 91.33, "unit": "%"}, {"measurement": "MEAN CORPUSCULAR HEMOGLOBIN", "setting": "Rattus norvegicus [2]; tissue Blood", "result": 22.67, "unit": "pg"}, {"measurement": "MEAN CORPUSCULAR HEMOGLOBIN CONCENTRATION", "setting": "Rattus norvegicus [2]; tissue Blood", "result": 37.1, "unit": "G/DL"}, {"measurement": "MONOCYTE", "setting": "Rattus norvegicus [2]; tissue Blood", "result": 3, "unit": "%"}, {"measurement": "NEUTROPHIL", "setting": "Rattus norvegicus [2]; tissue Blood", "result": 5, "unit": "%"}, {"measurement": "NUCLEATED RED BLOOD CELLS", "setting": "Rattus norvegicus [2]; tissue Blood", "result": "0 /100WBC"}, {"measurement": "PLATELET COUNT", "setting": "Rattus norvegicus [2]; tissue Blood", "result": 734, "unit": "x10E3/uL"}, {"measurement": "ALANINE AMINOTRANSFERASE", "setting": "Rattus norvegicus [2]; tissue Plasma", "result": 52.33, "unit": "u/L"}, {"measurement": "ALBUMIN", "setting": "Rattus norvegicus [2]; tissue Plasma", "result": 4.07, "unit": "G/DL"}, {"measurement": "ALKALINE PHOSPHATASE", "setting": "Rattus norvegicus [2]; tissue Plasma", "result": 343, "unit": "u/L"}, {"measurement": "ASPARTATE AMINOTRANSFERASE", "setting": "Rattus norvegicus [2]; tissue Plasma", "result": 103, "unit": "u/L"}, {"measurement": "BLOOD UREA NITROGEN", "setting": "Rattus norvegicus [2]; tissue Plasma", "result": 16.33, "unit": "mg/dL"}, {"measurement": "CARBON DIOXIDE", "setting": "Rattus norvegicus [2]; tissue Plasma", "result": 32, "unit": "mmol/L"}, {"measurement": "CHLORIDE", "setting": "Rattus norvegicus [2]; tissue Plasma", "result": 103.33, "unit": "MEQ/L"}, {"measurement": "CHOLESTEROL", "setting": "Rattus norvegicus [2]; tissue Plasma", "result": 76.67, "unit": "mg/dL"}, {"measurement": "CREATININE", "setting": "Rattus norvegicus [2]; tissue Plasma", "result": 0.17, "unit": "mg/dL"}, {"measurement": "GLUCOSE", "setting": "Rattus norvegicus [2]; tissue Plasma", "result": 156.33, "unit": "mg/dL"}, {"measurement": "LACTATE DEHYDROGENASE", "setting": "Rattus norvegicus [2]; tissue Plasma", "result": 133.67, "unit": "u/L"}, {"measurement": "LIPASE", "setting": "Rattus norvegicus [2]; tissue Plasma", "result": 9.33, "unit": "u/L"}, {"measurement": "PHOSPHORUS", "setting": "Rattus norvegicus [2]; tissue Plasma", "result": 12.87, "unit": "mg/dL"}, {"measurement": "POTASSIUM", "setting": "Rattus norvegicus [2]; tissue Plasma", "result": 6.09, "unit": "MEQ/L"}, {"measurement": "SODIUM", "setting": "Rattus norvegicus [2]; tissue Plasma", "result": 148.53, "unit": "MEQ/L"}, {"measurement": "TOTAL BILIRUBIN", "setting": "Rattus norvegicus [2]; tissue Plasma", "result": 0.17, "unit": "mg/dL"}, {"measurement": "TOTAL PROTEIN", "setting": "Rattus norvegicus [2]; tissue Plasma", "result": 6.2, "unit": "G/DL"}, {"measurement": "URIC ACID", "setting": "Rattus norvegicus [2]; tissue Plasma", "result": 1.27, "unit": "mg/dL"}]}
